Columns and labels:
Mu-type opioid receptor = Mu-type opioid receptor (Rattus norvegicus, UniProt P33535); assay: Inhibition of binding of [3H]DAMGO to opioid receptor mu 1 from rat brain membrane.
[1] = biological target: Delta-type opioid receptor (Rattus norvegicus, UniProt P33533); assay: Inhibition of binding of [3H]-DPDPE to opioid receptor delta 1 from rat brain membrane.
Delta-type opioid receptor, sequence (P33533 whole entry): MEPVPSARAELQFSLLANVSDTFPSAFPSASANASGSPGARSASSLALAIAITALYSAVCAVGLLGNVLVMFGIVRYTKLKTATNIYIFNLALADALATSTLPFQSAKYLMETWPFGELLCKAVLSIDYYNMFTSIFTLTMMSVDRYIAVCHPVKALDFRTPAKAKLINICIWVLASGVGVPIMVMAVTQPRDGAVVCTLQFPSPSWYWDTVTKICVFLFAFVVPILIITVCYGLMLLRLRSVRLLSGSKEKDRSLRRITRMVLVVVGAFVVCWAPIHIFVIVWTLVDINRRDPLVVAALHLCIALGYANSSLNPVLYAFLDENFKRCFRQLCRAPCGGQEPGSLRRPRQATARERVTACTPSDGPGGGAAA

Mu-type opioid receptor, sequence (P33535 whole entry): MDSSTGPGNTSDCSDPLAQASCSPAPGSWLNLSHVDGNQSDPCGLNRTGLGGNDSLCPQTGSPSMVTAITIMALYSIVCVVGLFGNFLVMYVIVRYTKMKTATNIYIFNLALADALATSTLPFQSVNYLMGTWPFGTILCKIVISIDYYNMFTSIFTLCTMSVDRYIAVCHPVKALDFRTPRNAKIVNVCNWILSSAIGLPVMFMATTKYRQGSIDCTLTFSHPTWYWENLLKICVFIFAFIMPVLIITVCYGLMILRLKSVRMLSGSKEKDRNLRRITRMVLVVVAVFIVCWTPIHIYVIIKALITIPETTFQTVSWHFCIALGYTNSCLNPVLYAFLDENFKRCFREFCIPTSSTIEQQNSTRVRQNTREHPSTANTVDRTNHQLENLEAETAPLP

SMILES | Ki (Mu-type opioid receptor) [µM] | Ki [1] [µM]
CCN(CC)C(=O)c1ccc(/C(=N/c2ccc(Cl)cc2)N2CCN(Cc3ccccc3)CC2)cc1 | > 10 | 0.142
CCN(CC)C(=O)c1ccc(/C(=N/c2ccccc2C(F)(F)F)N2CCN(CCOC)CC2)cc1 | 2.96 | 0.0229
CCN1CCN(/C(=N\c2ccccc2Cl)c2ccc(C(=O)OC)cc2)CC1 | > 1 | 0.222
CCN(CC)C(=O)c1ccc(/C(=N/c2ccccc2Cl)N2CCN(CCc3cccs3)CC2)cc1 | > 10 | 0.0953
COC(=O)c1ccc(/C(=N/c2ccccc2Cl)N2CCCN(CCc3ccccc3)CC2)cc1 | 0.197 | 0.101
CCN1CCN(/C(=N\c2cccc(Br)c2)c2ccc(C(=O)N(CC)CC)cc2)CC1 | > 10 | 0.0576
C=CCN1C[C@H](C)N(/C(=N\c2ccccc2)c2ccc(C(=O)N(CC)CC)cc2)C[C@H]1C | – | 0.17
C=CCN1CCN(/C(=N\c2ccccc2)c2ccc(C(=O)N(CC)CC)cc2)CC1 | 1 | 0.859
CCN1CCN(/C(=N\c2cccc(F)c2)c2ccc(C(=O)N(CC)CC)cc2)CC1 | > 10 | 0.0585
CCCN(CCC)C(=O)c1ccc(/C(=N/c2ccccc2Cl)N2CCN(CC)CC2)cc1 | 3.93 | 0.292
CCN(CC)C(=O)c1ccc(/C(=N/c2ccccc2Cl)N2CCN(CCOC)CC2)cc1 | > 10 | 0.0535
CCN1CCN(/C(=N\c2ccccc2Cl)c2ccc(C(=O)N(CC)CC)cc2)CC1 | > 1 | 0.0911
C=CCN1C[C@H](C)N(/C(=N\c2ccccc2)c2ccc(C(=O)OC)cc2)C[C@H]1C | – | 0.405
CCN1CCN(/C(=N\c2ccccc2F)c2ccc(C(=O)N(CC)CC)cc2)CC1 | > 1 | 0.118
CCCN1CCN(/C(=N\c2cccc(Cl)c2)c2ccc(C(=O)N(CC)CC)cc2)CC1 | 9.53 | 0.177
CCN(CC)C(=O)c1ccc(/C(=N/c2ccccc2)N2CCN(Cc3ccccc3)CC2)cc1 | > 10 | 0.212
CCN(CC)C(=O)c1ccc(/C(=N/c2ccccc2C(F)(F)F)N2CCN(Cc3ccccc3)CC2)cc1 | 1.2 | 0.00122
CCCN(CCC)C(=O)c1ccc(/C(=N/c2ccccc2OC)N2CCN(CC)CC2)cc1 | 3.91 | 1.02
CCN(CC)C(=O)c1ccc(/C(=N/c2ccccc2)N2CCN(CCc3cccs3)CC2)cc1 | > 10 | 0.764
CCN1CCN(/C(=N\c2cc(Cl)cc(Cl)c2)c2ccc(C(=O)N(CC)CC)cc2)CC1 | > 1 | 0.277
CCN1CCN(/C(=N\c2cccc(Cl)c2)c2ccc(C(=O)N(CC)CC)cc2)CC1 | > 1 | 0.063
CCN(CC)C(=O)c1ccc(/C(=N/c2ccccc2C(F)(F)F)N2CCN(CCc3ccccc3)CC2)cc1 | 1 | 0.545
CCN1CCN(/C(=N\c2ccccc2)c2ccc(C(=O)N(CC)CC)cc2)CC1 | 1 | 0.016
CCN(CC)C(=O)c1ccc(/C(=N/c2ccccc2Cl)N2CCN(Cc3ccccc3)CC2)cc1 | > 10 | 0.0118
CCCN1CCN(/C(=N\c2ccccc2Cl)c2ccc(C(=O)OC)cc2)CC1 | 2.07 | 0.0873
C=CCN1CCN(/C(=N\c2ccccc2Cl)c2ccc(C(=O)N(CC)CC)cc2)CC1 | 7.6 | 0.0205
CCN(CC)C(=O)c1ccc(/C(=N/c2ccccc2)N2CCCN(CCc3ccccc3)CC2)cc1 | 0.396 | 0.543
C=CCN1CCN(/C(=N\c2cccc(Cl)c2)c2ccc(C(=O)N(CC)CC)cc2)CC1 | > 10 | 0.157
COC(=O)c1ccc(/C(=N/c2ccccc2)N2CCCN(CCc3ccccc3)CC2)cc1 | 0.232 | 0.82
CCN(CC)C(=O)c1ccc(/C(=N/c2ccccc2Cl)N2CCCN(CCc3ccccc3)CC2)cc1 | 0.618 | 0.0296
